Measurements: US20070197388A1, “Haloperoxidase treatment to control algae” (Buckman Laboratories International, Inc., priority 2006, published 2007)

Experiments:
Assay type in all cases: cell-based
[1] = tested on: Chlorella sp. (ATCC 7516); test: Evaluation of algaecidal activity (MIC) and checkerboard synergy, Chlorella sp.
Description: Evaluation of […] Activity: This test method provides a technique for screening newly synthesized compounds for their effectiveness to inhibit (repress) algae growth. […] Apparatus: Test tubes, 18-150 mm. Sterilized test tubes are required. Incubator, capable of a constant (±2° C.) temperature and light regulation. Reagents and Materials: [table] Inoculum: Cell suspension from a culture grown in modified Allen's medium for 14 days or as needed to attain a desired cell mass of Chlorella sp. (ATCC 7516) or Phormidium faveolarum (UTEX 427). The inoculum is calibrated at 82% transmittance measured at 590 nanometers wavelength before inoculation. Procedure: Medium preparation: Modified Allen's medium (Allen, A. A., 1968). [table] Sterilize the medium in the autoclave for 20 minutes at 15 pounds pressure (121° C.). After autoclaving, cool medium to 45-50° C. and dispense 5 ml of medium per test tube, then add the compound and the inoculum. Compound incorporation: Prepare a stock solution in water of the compound to be tested. The concentration of the stock solution is dependent on the largest dosage desired to be tested. Dilute the stock solution to obtain dosages smaller than that chosen for the stock solution. A maximum amount of 100 microliters of stock solution or the corresponding dilution should be added per test tube. Inoculation: Add 100 microliters of inoculum per test tube, per type of medium and type of inoculum. Incubation: Place the test tubes containing the treatments in an incubator set at 24° C. Light is provided by plant growth fluorescent tubes set to provide 16 h of light and 8 h of darkness. […] The minimum inhibitory concentration (MIC) of the compound is the smallest dosage showing negative algae growth. Synergy Evaluation: Synergy was measured by checkerboards dilutions (Yan and Hancock, 2001), in which one compound is diluted along the rows of test tubes and the other is diluted along the columns. This method focuses on looking for a reduction in the MIC of each component in the presence of the other.

[2] = tested on: Enterobacter aerogenes (ATCC 13048); test: Evaluation of bactericidal activity (MIC, >=90% kill) and checkerboard synergy, Enterobacter aerogenes; conditions: Klebsiella aerogenes, ATCC13048; alone; system with 2 ppm a.i. Hydrogen Peroxide; 18 hours at 37° C.; read-out: MICA = MIC of Dichloramine B
Description: (§1) Synergy Evaluation: Synergy was measured by checkerboards dilutions (Yan and Hancock, 2001), in which one compound is diluted along the rows of test tubes and the other is diluted along the columns. This method focuses on looking for a reduction in the MIC of each component in the presence of the other. The result is expressed as the Fractional Inhibitory Concentration Index (FIC), calculated as follows: FIC=[A]/MICA+[B]/MICB where, • MICA and MICB=MICs of the compounds A and B alone • [A] and [B]=MICs of the compounds A and B when in combination.
Evaluation of Bactericidal Activity: This method is suitable for use in evaluating the antibacterial properties of chemicals by determining their MIC value. The MIC value represents the Minimum Inhibitory Concentration defined as the lowest level of compound required to achieve a ≧90% kill of a given organism.
Equipment • 1. Test tubes, 18×150 mm disposable culture tubes sterile • 2. Sterile 1 ml and 10 ml pipettes • 3. Incubator capable of maintaining a temperature of 37° C.±1° C. • 4. Autoclave • 5. pH meter • 6. […]
Rating of tubes via plate count method: The Pour Plate Count agar was prepared as described in Standard Methods (American Public Health Association; 1995). […] Colonies formed in or on the plate count medium within 48±2 h were counted as described in Standard Methods, and the results were reported as CFU/milliliter. […]

[3] = tested on: Phormidium faveolarum (UTEX 427); test: Evaluation of algaecidal activity (MIC) and checkerboard synergy, Phormidium faveolarum; conditions: alone, system with 1 ppm a.i. Hydrogen Peroxide, 14 days at 24° C.
Description: Evaluation of Algaecidal Activity: This test method provides a technique for screening newly synthesized compounds for their effectiveness to inhibit (repress) algae growth.
Apparatus: Test tubes, 18-150 mm. Sterilized test tubes are required.
Incubator, capable of a constant (±2° C.) temperature and light regulation.
Inoculum: Cell suspension from a culture grown in modified Allen's medium for 14 days or as needed to attain a desired cell mass of Chlorella sp. (ATCC 7516) or Phormidium faveolarum (UTEX 427). The inoculum is calibrated at 82% transmittance measured at 590 nanometers wavelength before inoculation.
Procedure: Medium preparation: Modified Allen's medium (Allen, A. A., 1968).
Sterilize the medium in the autoclave for 20 minutes at 15 pounds pressure (121° C.). After autoclaving, cool medium to 45-50° C. and dispense 5 ml of medium per test tube, then add the compound and the inoculum. […]
as §1, with “This method focuses on looking for a reduction in the MIC of each component in the presence of the other.” left out

[4] = alone, system with 1 ppm a.i. Hydrogen Peroxide, 14 days at 24° C.

O=S(=O)(c1ccccc1)N(Cl)Cl [Dichloramine B, N,N-dichlorobenzenesulfonamide]
MIC Dichloramine B combined with Haloperoxidase and Hydrogen Peroxide ([1]; combined with 1 ppm product of Haloperoxidase (Novozyme) and 2 ppm a.i. Hydrogen Peroxide, 14 days at 24° C.): < 0.07 ppm a.i. | MIC [2]: 5 µg/mL

Benzalkonium Chloride [reference compound]
dosage controlling algae growth ([1]; Example 7, reinoculated only after 14 days, incubated 14 days (result not shown)): 2 ppm a.i. | MICA = MIC of Benzalkonium Chloride ([1]; alone, reinoculated after 14 days and treated with 1 ppm of hydrogen peroxide, incubated 14 days): 2 MICA mg a.i./l | MICA = MIC of Benzalkonium Chloride [1, 4]: 1 MICA mg a.i./l | MICA = MIC of Benzalkonium Chloride [3]: 2 MICA mg a.i./l

CCCCCCCCCCCCCCCC[N+](C)(C)CC.[Br-] [EHDB, Ethyl-n-Hexadecyl Dimethylammonium Bromide]
MICA = MIC of EHDB [1, 4]: 0.5 MICA mg a.i./l | MIC ([3]; 336 h, read-out: MICA = MIC of EHDB): 0.5 µg/mL

B1: Myeloperoxidase: a myeloperoxidase enzyme obtained from Biodesign International (protein, UniProt P05164 165-745, looked up)
Myeloperoxidase: VTCPEQDKYRTITGMCNNRRSPTLGASNRAFVRWLPAEYEDGFSLPYGWTPGVKRNGFPVALARAVSNEIVRFPTDQLTPDQERSLMFMQWGQLLDHDLDFTPEPAARASFVTGVNCETSCVQQPPCFPLKIPPNDPRIKNQADCIPFFRSCPACPGSNITIRNQINALTSFVDASMVYGSEEPLARNLRNMSNQLGLLAVNQRFQDNGRALLPFDNLHDDPCLLTNRSARIPCFLAGDTRSSEMPELTSMHTLLLREHNRLATELKSLNPRWDGERLYQEARKIVGAMVQIITYRDYLPLVLGPTAMRKYLPTYRSYNDSVDPRIANVFTNAFRYGHTLIQPFMFRLDNRYQPMEPNPRVPLSRVFFASWRVVLEGGIDPILRGLMATPAKLNRQNQIAVDEIRERLFEQVMRIGLDLPALNMQRSRDHGLPGYNAWRRFCGLPQPETVGQLGTVLRNLKLARKLMEQYGTPNNIDIWMGGVSEPLKRKGRVGPLLACIIGTQFRKLRDGDRFWWENEGVFSMQQRQALAQISLPRIICDNTGITTVSKNNIFMSNSYPRDFVNCSTLPALNLASWREAS
MIC (ppm product) ([1]; 2 ppm a.i. hydrogen peroxide as substrate, 4 ppm a.i. ammonium bromide as electron donor): <0.1 ppm product
